Measured values as given in patent publication US20210100859A1, “HERPES SIMPLEX VIRUS (HSV) ANTICANCER THERAPIES” (priority 2019, published 2021).

Experiments:
TR127 cells = experiment: Virus spread: GFP+ RAMBO infected cells by flow cytometry; assay type: cell-based, human; settings: TR127, RAMBO MOI=0.1 1 hr then CP 2 μM 16 hr; presence vs absence of CP
Method: FIGS. 1A-1J: RAMBO increases cisplatin accumulation in cisplatin-resistant ovarian cancer cells. (FIG. 1A) Representative histogram (left) and quantification (right) of percentage of GFP^+ infected cisplatin resistant ovarian cancer cells. TR127 cells infected with RAMBO (MOI=0.1) for 1 hr and then treated with CP (2 μM) for 16 hr. Data shown are mean percentage of GFP^+ RAMBO infected TR127 cells (±s.d) analyzed by flow cytometry (n=3/group). (FIG. 1B) Quantification of intracellular CP retained inside platin resistant OC cells treated with/without RAMBO. OVCAR8, TR127 and TR182 were treated with/without RAMBO (MOI=0.1) for one hour and then incubated with 2.5 μM Texas-red labeled CP. Twenty-four hours post-infection CP accumulation in cells was analyzed by flow cytometry. Data shown are mean fluorescence intensity (MFI) of Texas-red labeled CP (±s.d., n=3/group). […] Briefly, RNA harvested from OVTOKO cells treated with RAMBO (MOI=1) for 16 hr was analyzed by RNAseq. […] (FIG. 1I) Quantification of Texas-red labeled CP accumulation in TR127 cells knocked down for either ATP7B, ATP11B, or both was analyzed by flow cytometry (n=3/group). (FIG. 1J) Quantification of Texas-red labeled CP accumulation in OVTOKO cells overexpressing (OE) both ATP11B and ATP7B, or control (Ctl). Cells were analyzed by flow cytometry. […]

ATP11B and ATP7B = experiment: Western blot of efflux proteins; assay type: cell-based, human; settings: TR127 and TR182 cells treated with RAMBO and/or CP

**Q.** `N.N.[Cl][Pt][Cl]` [CP, cisplatin] was tested. Which “GFP expression (GFP positive tumor cells as indicator of infection)” value (TR127 cells) did it give?
**A.** The value was “no difference”.

**Q.** What about the “protein expression of ATP11B and ATP7B” value (ATP11B and ATP7B) of the same molecule?
**A.** The value was “no effect”.
